Measured values reported in PubChem BioAssay (NCI).
Where “and” joins values, the source holds several entries; their conditions need not be identical. Equal values may be shown once.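 Grown in 96-well plates, cells were treated for 48 hours with each compound at five concentrations. Insufficient inhibition: endpoint recorded as highest concentration tested. GI50 marks 50% less growth. TGI: total growth inhibition.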

How the values were obtained:
Test in all cases: DTP human tumour cell line panel, 48 h
SK-OV-3 ovarian = system: SK-OV-3 ovarian
SK-MEL-5 melanoma = system: SK-MEL-5 melanoma
SF-539 CNS = system: SF-539 CNS
K-562 leukemia = system: K-562 leukemia
786-0 renal = system: 786-0 renal
OVCAR-3 ovarian = system: OVCAR-3 ovarian
SF-268 CNS = system: SF-268 CNS
SK-MEL-2 melanoma = system: SK-MEL-2 melanoma
MALME-3M melanoma = system: MALME-3M melanoma
SN12C renal = system: SN12C renal
OVCAR-8 ovarian = system: OVCAR-8 ovarian
IGROV1 ovarian = system: IGROV1 ovarian

SMILES | TGI (SK-OV-3 ovarian) | TGI (SK-MEL-5 melanoma) | TGI (SF-539 CNS) | TGI (K-562 leukemia) | TGI (786-0 renal) | TGI (OVCAR-3 ovarian) | TGI (SF-268 CNS) | TGI (SK-MEL-2 melanoma) | TGI (MALME-3M melanoma) | TGI (SN12C renal) | TGI (OVCAR-8 ovarian) | TGI (IGROV1 ovarian) | GI50 (SK-OV-3 ovarian) | GI50 (IGROV1 ovarian) | GI50 (SK-MEL-5 melanoma) | GI50 (SF-539 CNS) | GI50 (K-562 leukemia) | GI50 (SF-268 CNS) | GI50 (SN12C renal) | GI50 (OVCAR-8 ovarian)
COC(=O)[C@@H]1CCCN1CCN1CCC[C@H]1C(=O)OC | > 100 µM | > 100 µM | > 100 µM | > 100 µM | > 100 µM | > 100 µM | > 100 µM | > 100 µM | > 100 µM | > 100 µM | > 100 µM |  |  |  |  |  |  |  |  | 
O=C1OC2(OC2c2ccccc2)c2ccccc21 (stereo not drawn) | > 100 µM | > 100 µM | > 100 µM | > 100 µM | > 100 µM | > 100 µM | > 100 µM | > 100 µM | > 100 µM | > 100 µM | > 100 µM | > 100 µM |  |  |  |  |  |  |  | 
CCOP(=O)(OCC)c1c(C(=O)OC)cc(=O)[nH]c1-c1ccc(C)cc1 | 49.4 µM | 28.8 µM | 23 µM | > 78.4 µM | > 53.4 µM | 25.2 µM | > 52.1 µM | 32.4 µM | 19.9 µM | > 57 µM | > 47.1 µM | 20.6 µM |  |  |  |  |  |  |  | 
CC(=O)C1=C(C)NC2C=CC=CN12 (stereo not drawn) | > 100 µM | > 100 µM | > 100 µM | > 100 µM | > 100 µM | > 100 µM | > 100 µM | > 100 µM | > 100 µM | > 100 µM | > 100 µM | > 100 µM |  |  |  |  |  |  |  | 
COc1cc(CNc2ccc(SC)cc2)cc(OC)c1OC | 64.2 µM and 44.6 µM | 59.6 µM and 16 µM | 44.4 µM and 12.3 µM | 44.9 µM and > 63.6 µM | 77.2 µM and 65.8 µM | 54.1 µM and 19.6 µM | > 100 µM and 69.3 µM | 46 µM and > 50.6 µM | > 100 µM | > 100 µM | > 92.6 µM and 56 µM | > 82.1 µM and 71.6 µM | 15.4 µM and 5.05 µM | 17.2 µM and 7.73 µM | 11.6 µM and 4.51 µM | 11.4 µM and 3.06 µM | 3.99 µM and 1.49 µM | 19.9 µM and 7.47 µM | 19.3 µM and 9.07 µM | 27.1 µM and 7.69 µM
CCC(C#N)NC(=O)NC(C#N)CC (stereo not drawn) | > 100 µM | > 100 µM | > 100 µM | > 100 µM | > 100 µM | > 100 µM | > 100 µM | > 100 µM | > 100 µM | > 100 µM | > 100 µM | > 100 µM |  |  |  |  |  |  |  | 
O=c1c2c([N+](=O)[O-])cccc2nc2[nH]c3ccccc3n12 | 24.6 µM | > 75 µM | 25.3 µM | > 75 µM | > 75 µM | 70.3 µM | 62 µM | 42.5 µM | > 75 µM | > 75 µM | 31 µM | 37.1 µM |  |  |  |  |  |  |  | 
CCC1(C)N=C(c2cnccn2)NN1c1ccc(Cl)cc1 (stereo not drawn) | > 100 µM | > 100 µM | > 100 µM | > 100 µM | > 100 µM | > 100 µM | > 100 µM | > 100 µM | > 100 µM | 72.3 µM | > 100 µM | > 100 µM |  |  |  |  |  |  |  | 
CCCC(C)NC1=C(NC(C)=O)C(=O)c2ccccc2C1=O (stereo not drawn) | > 100 µM | > 100 µM | > 100 µM | > 100 µM | > 100 µM | > 100 µM | > 100 µM | > 100 µM | > 100 µM | > 100 µM | > 100 µM | > 100 µM |  |  |  |  |  |  |  | 
O=C(CSc1nnc(Cc2ccccc2)o1)Nc1ccc([N+](=O)[O-])cc1 | > 100 µM | > 100 µM | > 100 µM | > 100 µM | > 100 µM | > 100 µM | > 100 µM | > 100 µM | > 100 µM | > 100 µM | > 100 µM | > 100 µM |  |  |  |  |  |  |  | 
COC(=O)N/N=C(\C)C(CN1CCCCC1)C(C1=C(O)c2ccccc2OC1)c1ccccc1 (stereo not drawn) | > 100 µM | > 100 µM | > 100 µM | > 100 µM | > 100 µM | > 100 µM | > 100 µM | > 100 µM | > 100 µM | > 100 µM | > 100 µM | > 100 µM |  |  |  |  |  |  |  | 
CC1=NN2C(=N)/C(=C/c3ccco3)C(=O)N=C2S1 | > 100 µM | > 100 µM | > 100 µM | > 100 µM | > 100 µM | > 100 µM | > 100 µM | > 100 µM | > 100 µM | > 100 µM | > 100 µM | > 100 µM |  |  |  |  |  |  |  | 
O=C1c2ccccc2CCCCCCCCCCC12OCCCO2 | > 100 µM | 83.8 µM | > 100 µM | > 100 µM | > 100 µM | > 100 µM | 96.7 µM | 68.3 µM | 77.8 µM | > 100 µM | > 100 µM | > 100 µM |  |  |  |  |  |  |  | 
O=c1[nH]nc(Cc2ccc([N+](=O)[O-])cc2)n1CCO | > 100 µM | > 100 µM | > 100 µM | > 100 µM | > 100 µM | > 100 µM | > 100 µM | > 100 µM | > 100 µM | > 100 µM | > 100 µM | > 100 µM |  |  |  |  |  |  |  | 
N#Cc1c(-c2ccccc2)nc(-c2ccccc2)sc1=S | > 100 µM | > 100 µM | > 100 µM | > 100 µM | > 100 µM | > 100 µM | > 100 µM | > 100 µM | > 100 µM | > 100 µM | > 100 µM | > 100 µM |  |  |  |  |  |  |  | 
N#Cc1nc(-c2cccs2)oc1N | > 100 µM | > 100 µM | > 100 µM | > 100 µM | > 100 µM | > 100 µM | > 100 µM | > 100 µM | > 100 µM | > 100 µM | > 100 µM | > 100 µM |  |  |  |  |  |  |  | 
O=C1c2ccccc2C(=O)N1Cc1ccccc1-c1c2nc(c(-c3ccccc3CN3C(=O)c4ccccc4C3=O)c3ccc([nH]3)c(-c3ccccc3CN3C(=O)c4ccccc4C3=O)c3nc(c(-c4ccccc4CN4C(=O)c5ccccc5C4=O)c4ccc1[nH]4)C=C3)C=C2 | > 100 µM | > 100 µM | > 100 µM | > 100 µM | > 100 µM | > 100 µM | > 100 µM | > 100 µM | > 100 µM | > 100 µM | > 100 µM | > 100 µM |  |  |  |  |  |  |  | 
CN(C)c1ccc(C2SCC(=O)N2NS(=O)(=O)c2cccc(C(=O)O)c2)cc1 (stereo not drawn) | > 100 µM | > 100 µM | > 100 µM | > 100 µM | 31 µM | > 100 µM | > 100 µM | > 100 µM | > 100 µM | > 100 µM | 32.6 µM | > 100 µM |  |  |  |  |  |  |  | 
